Test results taken from patent US12474342B2, “Methods for treating cancer and the use of biomarkers as a predictor of clinical sensitivity to therapies” (CELGENE CORPORATION, priority 2016, dated 2025).
Read-outs that look alike come from different tables or passages of the source.

Experiments:
[1] = test system: ATF3, DDIT3, cleaved Caspases, cleaved PARP; assay: UPR and apoptosis pathway components in KG1 cells; format: cell-based, human; conditions: KG1, 200 nM
Protocol: Cells were treated with DMSO alone or 200 nM Compound D. After 2, 4, or 6 hours, the expression levels of various cellular components along UPR or apoptosis pathways were measured. […] Reduction of BIP indicates UPR.
Cells were treated with DMSO alone, 200 nM Compound D, or 200 nM Compound E. After 8 or 12 hours, the expression levels of various cellular components along UPR or apoptosis pathways were measured. […] Reduction of BIP indicates UPR.
To further investigate the timeline of cellular events upon Compound D treatment, KG1 cells were treated with DMSO alone or 200 nM Compound D. At 2, 4, 6, 8, 10, or 12 hours, the expression levels of various cellular components along ATF4 or apoptosis pathways were measured.

OCI-AML2 cells = assay: Apoptosis (caspase 3/7 activation), OCI-AML2; format: cell-based, human; conditions: for EC50: Homo sapiens, read-out: Compound D-induced Apoptosis EC50
DDIT3 (CHOP) = DDIT3 (CHOP) mRNA, quantitative PCR, KG-1; format: cell-based, human; conditions: KG-1, 100 nM Compound D or greater
Protocol: (§1) Compound D regulates UPR stress RNAs, ATF3 and CHOP, and nonsense-mediated decay (NMD) RNAs, SRSF3 and SRSF6, in KG-1 cells in both dose- and time-dependent manners. KG-1 cells were plated in 10 cm^2 dishes and incubated overnight. The following day, KG-1 cells were treated with a 6-point dose response (0, 3, 10, 30, 100, 300 nM) of Compound D and incubated for 2, 4, 8, and 20 hours. Cells were removed from dishes and cell pellets were prepared for RNA isolation (Qiagen RNA isolation kit). Total RNA was quantitated using NanoDrop spectrophotometer and cDNA was reversely transcribed using 1 μg total RNA. Quantitative PCR was performed in replicates for each sample using primer sets for ATF3, CHOP, and both NMD and normal transcripts of SRSF3 and SRSF6. Data was doubly normalized to the 18S housekeeping gene and 2 hour DMSO control. Normalized RNA expression (y-axis) versus drug concentration in nM (x-axis) for each time point was plotted. SRSF3-1 NMD and SRSF6-1 NMD depict amplification of NMD transcript for SRSF3 and SRSF6, respectively. SRSF3-3 Normal and SRSF6-3 Normal depict amplification of normal transcript for SRSF3 and SRSF6 genes, respectively. […] FIGS. 29A-29F show effects of Compound D treatment on UPR and NMD pathways in KG-1 cells. […] Additionally, 100 nM Compound D or greater induced the mRNA levels of ATF3 and DDIT3 (CHOP) approximately 100-fold and 10-fold, respectively. […]

MOLM-13 cells = assay: Anti-proliferation CTG assay, MOLM-13; format: cell-based, human
Protocol: A plethora of AML cell lines were treated with serial dilutions of Compound D. IC50 value of the anti-proliferation effect of Compound D (as determined in 72-hour CTG assays) in each cell line is summarized in Table 1.
The effect of overexpression of GSPT1 on the anti-proliferative effect of Compound D and Compound E was determined in human histiocytic lymphoma cell line U937 and human leukemia cell line MOLM13. Treatment compounds (e.g., Compound D or Compound E) were titrated from 0.001 μM to 10 μM. Cell proliferation was measured by CellTiter-Glo cell viability assay at 48 hours after treatment. […] However, when exogenous GSPT1 was overproduced via the EF1α promoter, as shown in FIGS. 5A-5D, the anti-proliferative effect of Compound D and Compound E reduced.

GSPT1 = GSPT1 (Homo sapiens, UniProt P15170+Q96SW2); assay: GSPT1 protein reduction, western analysis, ML-2; format: cell-based; design: reduction in GSPT1 protein level was evaluated in human normal PBMCs; endogenous in cells; host or cells: primary PBMCs from normal donors (ID 4328, 4379) and AML patients (ID 11SH, 09P6)
Chain of GSPT1 (P15170 1-637 isoform P15170-3): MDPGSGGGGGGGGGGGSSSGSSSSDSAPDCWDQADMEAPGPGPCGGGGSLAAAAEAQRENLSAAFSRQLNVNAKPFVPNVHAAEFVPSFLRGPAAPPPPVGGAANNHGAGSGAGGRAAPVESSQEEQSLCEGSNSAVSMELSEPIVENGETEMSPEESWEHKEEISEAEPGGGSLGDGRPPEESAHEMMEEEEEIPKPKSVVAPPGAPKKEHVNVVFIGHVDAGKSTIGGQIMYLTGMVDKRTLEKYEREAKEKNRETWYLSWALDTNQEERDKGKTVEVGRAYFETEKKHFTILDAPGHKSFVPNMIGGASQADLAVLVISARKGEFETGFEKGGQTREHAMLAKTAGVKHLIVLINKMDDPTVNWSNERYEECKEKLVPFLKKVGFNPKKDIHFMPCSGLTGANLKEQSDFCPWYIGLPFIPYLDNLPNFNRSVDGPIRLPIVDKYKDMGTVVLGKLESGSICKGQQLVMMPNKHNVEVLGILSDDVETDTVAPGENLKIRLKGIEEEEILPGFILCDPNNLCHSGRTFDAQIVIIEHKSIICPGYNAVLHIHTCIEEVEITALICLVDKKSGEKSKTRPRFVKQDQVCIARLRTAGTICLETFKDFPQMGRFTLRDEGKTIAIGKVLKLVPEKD
Chain of GSPT1 (Q96SW2 whole entry): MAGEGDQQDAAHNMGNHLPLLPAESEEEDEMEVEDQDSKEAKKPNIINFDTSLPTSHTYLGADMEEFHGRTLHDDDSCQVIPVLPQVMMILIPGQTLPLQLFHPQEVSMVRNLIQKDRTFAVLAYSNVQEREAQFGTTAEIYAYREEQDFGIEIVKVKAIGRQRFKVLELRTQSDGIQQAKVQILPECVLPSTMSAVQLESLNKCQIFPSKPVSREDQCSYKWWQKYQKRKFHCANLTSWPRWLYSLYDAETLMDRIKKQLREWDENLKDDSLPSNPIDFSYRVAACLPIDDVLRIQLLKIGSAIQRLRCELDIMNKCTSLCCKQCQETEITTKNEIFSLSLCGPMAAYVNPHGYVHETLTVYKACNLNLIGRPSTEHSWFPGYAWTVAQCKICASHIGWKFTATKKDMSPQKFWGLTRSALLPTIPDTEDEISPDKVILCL
Chain of GSPT1 (Q16531 whole entry partner): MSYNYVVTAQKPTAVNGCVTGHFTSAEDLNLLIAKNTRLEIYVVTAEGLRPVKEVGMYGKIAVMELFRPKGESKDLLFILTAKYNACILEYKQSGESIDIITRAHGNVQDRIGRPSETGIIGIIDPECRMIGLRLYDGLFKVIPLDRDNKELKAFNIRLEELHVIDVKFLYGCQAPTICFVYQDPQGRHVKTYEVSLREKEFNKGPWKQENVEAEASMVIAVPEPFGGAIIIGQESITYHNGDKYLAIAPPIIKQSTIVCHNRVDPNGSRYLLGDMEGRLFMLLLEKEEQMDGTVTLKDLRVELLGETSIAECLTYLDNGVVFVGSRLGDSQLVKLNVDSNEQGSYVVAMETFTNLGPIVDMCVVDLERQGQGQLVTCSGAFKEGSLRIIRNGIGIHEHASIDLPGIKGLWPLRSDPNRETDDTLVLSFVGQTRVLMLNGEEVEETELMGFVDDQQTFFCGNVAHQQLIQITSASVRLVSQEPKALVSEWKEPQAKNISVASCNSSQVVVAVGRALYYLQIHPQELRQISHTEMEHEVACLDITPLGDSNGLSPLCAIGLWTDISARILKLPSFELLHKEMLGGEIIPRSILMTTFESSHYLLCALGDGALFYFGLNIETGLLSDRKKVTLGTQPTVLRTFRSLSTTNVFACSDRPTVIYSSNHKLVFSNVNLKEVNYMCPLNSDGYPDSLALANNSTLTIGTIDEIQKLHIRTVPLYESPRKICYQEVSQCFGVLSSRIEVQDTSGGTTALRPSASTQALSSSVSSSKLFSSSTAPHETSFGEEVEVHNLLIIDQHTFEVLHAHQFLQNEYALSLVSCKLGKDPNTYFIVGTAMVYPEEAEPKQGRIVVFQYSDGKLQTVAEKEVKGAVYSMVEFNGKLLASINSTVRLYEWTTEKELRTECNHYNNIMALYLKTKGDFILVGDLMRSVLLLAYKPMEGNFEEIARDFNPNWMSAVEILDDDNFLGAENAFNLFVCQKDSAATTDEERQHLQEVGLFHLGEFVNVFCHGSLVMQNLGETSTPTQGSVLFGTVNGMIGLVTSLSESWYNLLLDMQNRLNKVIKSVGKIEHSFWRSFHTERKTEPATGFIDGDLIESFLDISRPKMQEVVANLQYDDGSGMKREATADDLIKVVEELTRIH
Protocol: The time course of the reduction in GSPT1 by Compound D also was studied for up to 48 hours. The progressive degradation of GSPT1 over the course of 1 to 20 hours was evident in the presence of all concentrations of Compound D studied from 3 to 300 nM in HNT-34, HL-60, and ML-2 cells, with little GSPT1 remaining by 20 hours at 100 or 300 nM Compound D in HNT-34 or HL-60 cells (FIG. 34 and FIG. 35C). Time-dependent reduction in GSPT1 was also observed in KG-1 and OCI-AML2 cells at 3 to 1000 nM Compound D, with little GSPT1 remaining in KG-1 cells at 100 to 300 nM at 24 hours or in OCI-AML2 cells at 300 and 1000 nM at 24 hours (FIG. 35D). Loss of GSPT1 occurred more slowly in Kasumi-1, AML-193, and […] cells. […] A positive association (r^2=0.50; […]

ATF3 = ATF3 mRNA, quantitative PCR, KG-1; format: cell-based, human; conditions: KG-1, 100 nM Compound D or greater
Protocol: as §1

healthy donor PBMCs = assay: Anti-proliferation, healthy donor PBMCs; format: cell-based; conditions: Homo sapiens, PBMC; healthy donor PBMCs (data not shown)

With `O=C1CCC(N2Cc3cc(CNC(=O)C(F)(F)c4ccc(Cl)cc4)ccc3C2=O)C(=O)N1` (stereo not shown) [Compound D, 2-(4-chlorophenyl)-N-((2-(2,6-dioxopiperidin-3-yl)-1-oxoisoindolin-5-yl)methyl)-2,2-difluoroacetamide] the “time at which levels of apoptotic markers started to increase” value [1] was “approximately 6 hrs”, the “level of ATF3, DDIT3, cleaved Caspase-3, cleaved Caspase-8, and cleaved PARP” value ([1]; 8 or 12 hours) was “increased the level” and the EC50 (OCI-AML2 cells; OCI-AML2, 48 hr) was 81 nM. The EC50 (OCI-AML2 cells; OCI-AML2, 72 hr) was 41 nM, the EC50 (OCI-AML2 cells; OCI-AML2, 96 hr) was 38 nM and the “Average Percent Increase in Apoptosis at 123 nM Compound D, Apoptosis (12 hr)” value (OCI-AML2 cells; OCI-AML2, 123 nM, 12 hr) was 0%. For the same molecule, the “Average Percent Increase in Apoptosis at 123 nM Compound D, Apoptosis (24 hr)” value (OCI-AML2 cells; OCI-AML2, 123 nM, 24 hr) was 3%, the “Average Percent Increase in Apoptosis at 123 nM Compound D, Apoptosis (48 hr)” value (OCI-AML2 cells; OCI-AML2, 123 nM, 48 hr) was 33% and the “induction of DDIT3 (CHOP) mRNA level” value (DDIT3 (CHOP)) was about 10 fold. For the same molecule, the IC50 (MOLM-13 cells; Homo sapiens, MOLM-13, 72-hour CTG assay, read-out: IC50 of the anti-proliferative effect) was 75 nM, the anti-proliferative effect (MOLM-13 cells; MOLM13 CRBN -/- cells, 48 hours) was “completely abolished” and the “cell proliferation (CellTiter-Glo)” value (MOLM-13 cells; MOLM13 parental cells, 0.001 μM to 10 μM, 48 hours) was “inhibited cell proliferation”. For the same molecule, the “reduction of GSPT1 protein levels” value (GSPT1; ML-2, 100 nM Compound D, 8 hours) was “greater than 800”, the “Percent Reduction at 100 nM Compound D GSPTI (8 hr)” value (GSPT1; ML-2, 100 nM, 8 hr) was 82% and the “induction of ATF3 mRNA level” value (ATF3) was “approximately 100 fold”. It also gave an IC50 (healthy donor PBMCs) of over 10000 nM.
